Experimental data taken from ChEMBL document CHEMBL1156411, “New axane and oppositane sesquiterpenes from Teclea nobilis” (J Nat Prod, 2002).
The source made the active and inactive calls.

Key:
Type in all cases: functional, organism-based
Candida albicans = experiment: Antimicrobial activity against Candida albicans
Plasmodium falciparum [1] = experiment: Antiplasmodial activity against Plasmodium falciparum W2
Plasmodium falciparum [2] = experiment: Antiplasmodial activity against Plasmodium falciparum D6
Staphylococcus aureus [3] = experiment: Antimicrobial activity against Staphylococcus aureus
Staphylococcus aureus [4] = experiment: Antimicrobial activity against methicillin-resistant Staphylococcus aureus
Cryptococcus neoformans = experiment: Antimicrobial activity against Cryptococcus neoformans

Measured: Activity

C=C1CC[C@H](O)[C@@]2(C)CC[C@H](C(=O)C(C)C)[C@@H]12
inactive: all assays above

C=C1CC[C@@H](O)[C@]2(C)CC[C@H](C(=O)C(C)C)[C@@H]12
inactive: all assays above
